Measured values published in patent publication US20130071495A1, “INHIBITORS OF GLYCOGEN SYNTHASE KINASE 3 FOR USE IN THERAPEUTIC METHODS AND SCREENING METHOD RELATING THERETO” (Helmholtz Zentrum Muenchen Deutsches Forschungszentrum fuer …, priority 2010, published 2013).

Assays:
Assay type in all cases: in vivo, C57BL/6N mice
[1] = tested on: elastase-induced emphysema model (mice); assay: Histological and immunohistochemical assessment of lung sections, elastase-induced emphysema
Procedure: (§1) Six- to eight-week-old pathogen-free female C57BL/6N mice (Charles River Laboratories) were used throughout this study. All experiments were performed in accordance with the guidelines of the Ethics Committee of the University of Giessen School of Medicine and approved by the Regierungspräsidium Giessen, Hesse, Germany. Mice had free access to water and rodent laboratory chow. Pancreatic elastase was dissolved in sterile PBS and applied orotracheally (100 U/kg BW). Control mice received 80 μl sterile PBS. Lung tissues were excised and snap-frozen or inflated with 4% (m/v) paraformaldehyde in PBS (PAA Laboratories) at 21 cm H2O pressure for histological analyses.
(§2) The WNT/β-catenin signaling pathway in lungs from C57BL/6N mice was activated via intraperitoneal injection of lithium chloride (200 mg/KG/BW/day) (22). Lithium chloride mimics members of the WNT family of signalling proteins by inhibiting the activity of GSK-3β and thus causes intracellular accumulation of β-catenin, a feature associated with the canonical WNT/β-catenin signalling pathway (23). Under these circumstances, β-catenin can enter the nucleus and influence the expression of target genes. Lithium chloride was diluted in sterile water and fresh stock was prepared for every injection. Mice were treated on a daily basis, from day 0, the day of elastase subjection to day 7 in the preventive regime, and from day 7 to 14 in the therapeutic regime, respectively. The following scheme illustrates preventive and therapeutic activation of WNT/β-catenin signaling in experimental emphysema:
Mice were subjected to a single orotracheal application of elastase, which led to the development of pulmonary emphysema from day 1 to 14. WNT/β-catenin activation by treatment with lithium chloride (LiCl) was initiated on day of elastase subjection to day 7 (referred to as preventive approach), or from day 7 to day 14 (referred to as therapeutic approach), using the indicated concentrations (daily application intraperitonal (i.p.), n=6 for each group). […]

[2] = tested on: elastase-induced emphysema model (mice); assay: Immunoblotting and densitometry of SP-C in lung homogenates, elastase-induced emphysema; settings: preventive approach, LiCl 200 mg/kg/day i.p. day 0-7; vehicle 0.36±0.06; p=0.0231
Procedure: as §1
as §2, with “Mice were treated on a daily basis, from day 0, the day of elastase subjection to day 7 in the preventive regime, and from day 7 to 14 in the therapeutic regime, respectively. The following scheme illustrates preventive and therapeutic activation of WNT/β-catenin signaling in experimental emphysema:” left out

[3] = tested on: elastase-induced emphysema model (mice); assay: Quantitative morphometry of lung structure in elastase-induced emphysema
Procedure: as §1
The WNT/β-catenin signaling pathway in lungs from C57BL/6N mice was activated via intraperitoneal injection of lithium chloride (200 mg/KG/BW/day) (22). […]
To assess air space enlargement, the mean chord length (MCL) was quantified by superimposing a line grid on the images of lung sections at a magnification of 200×. Points on the lines of the grid hitting the air spaces, and intercepts of the lines with alveolar septa were counted to calculate MCL according to the formula: MCL=ΣPair×L(p)/(Isepta/2) (μm), where ΣPair is the sum of the points of the grid overlaid air spaces, L(p) is the line length per point and Isepta is the sum of the intercepts of alveolar septa with the lines of the grid. For the morphometric assessment of alveolar surface area per unit volume of lung parenchyma (Sv) were determined by counting the number of points that fell on alveolar septal tissue and alveolar space, and by counting the number of intercepts with alveolar septal surface at a magnification of 200× according to the following formulas: Sv=2×Isepta/(ΣPpar×L(p)/3) (1 μm), where ΣPpar is the sum of the points of hitting parenchyma, L(p) is the line length per test point in μm, and Isepta the sum of the intercepts with alveolar septa.

[4] = tested on: elastase-induced emphysema model (mice); assay: qRT-PCR of ECM and alveolar epithelial cell markers in lungs, elastase-induced emphysema; settings: preventive approach, day 7
Procedure: as §1, §2
Mice were subjected to a single orotracheal application of elastase, which led to the development of pulmonary emphysema from day 1 to 14. WNT/β-catenin activation by treatment with lithium chloride (LiCl) was initiated on day of elastase subjection to day 7 (referred to as preventive approach), or from day 7 to day 14 (referred to as therapeutic approach), using the indicated concentrations (daily application intraperitonal (i.p.), n=6 for each group).
Total RNA was extracted using Qiagen extraction kits according to the manufacturer's protocol, and cDNAs were generated by reverse transcription using SuperScript™ II (Invitrogen). Quantitative (q)RT-PCR was performed using fluorogenic SYBR Green and the Sequence Detection System Fast 7500 (PE Applied Biosystems). HPRT1 and PBGD, ubiquitously and equally expressed genes free of pseudogenes, were used as a reference gene in all human and mouse qRT-PCR reactions, respectively. PCR was performed using the primers listed in Table 1 and 2, respectively, at a final concentration of 200 nM. Relative transcript abundance of a gene is expressed in ΔCt values (ΔCt=ct^reference−Ct^target). Relative changes in transcript levels compared to controls are ΔΔCt values (ΔΔCt=ΔCt^treated−ΔCt^control). All ΔΔCt values correspond approximately to the binary logarithm of the fold change as mentioned in the text. When relative transcript abundance is of information, expression levels are given in ΔCt levels.

[5] = tested on: elastase-induced emphysema model (mice); assay: Collagen assay (Sircol) in whole-lung homogenates, elastase-induced emphysema; settings: preventive approach, LiCl 200 mg/kg/day i.p. day 0-7; vehicle 29.6±4.1; p=0.042
Procedure: as §1
The WNT/β-catenin signaling pathway in lungs from C57BL/6N mice was activated via intraperitoneal injection of lithium chloride (200 mg/KG/BW/day) (22). Lithium chloride mimics members of the WNT family of signalling proteins by inhibiting the activity of GSK-3β and thus causes intracellular accumulation of β-catenin, a feature associated with the canonical WNT/β-catenin signalling pathway (23). […]
Whole-mouse lung homogenates were used for in vivo analysis. Total collagen content was determined using the Sircol Collagen Assay kit (Biocolor). […] Samples and collagen standards were then read at 540 nm in a spectrophotometer (Bio-Rad). Collagen concentrations were calculated using a standard curve with acid-soluble type I collagen.

## [Cl-].[Li+] [LiCl, Lithium chloride]
[1]; preventive approach, compared with vehicle-treated mice
  immunohistochemical staining for SP-C, WNT3a and β-catenin: increased appearance of SP-C-positive cells with enhanced staining of the WNT/β-catenin signaling component WNT3a as well as nuclear β-catenin staining
[1]; preventive approach, day 0-7, H&E staining
  histological assessment of the lung structure: marked attenuated emphysematous changes
[1]; therapeutic approach, day 7-14, H&E staining
  histological assessment of the lung structure: marked attenuation of emphysema along with restored lung architecture
[2]
  SP-C protein expression (immunoblot densitometry): 0.62±0.05
[3]; preventive approach, LiCl 200 mg/kg/day i.p. day 0-7, vehicle 109.9±7.8, p=0.0021
  mean chord length: 74.0±6.6 μm
[3]; preventive approach, LiCl 200 mg/kg/day i.p. day 0-7, vehicle 317.8±27.5, p=0.0067
  surface area: 560.7±55.7 cm^2
[3]; therapeutic approach, LiCl 200 mg/kg/day i.p. day 7-14, vehicle 106.4±2.3, p=0.021
  mean chord length: 85.3±2.5
[4]; p=0.003
  cadherin 1 (cdh1) mRNA, log-fold change LiCl-treated versus untreated lungs: 0.97±0.20
[4]; p=0.025
  aquaporin 5 (aqp5) mRNA, log-fold change LiCl-treated versus untreated lungs: 0.63±0.18
[4]; p=0.033
  thyroid transcription factor 1 (ttf1) mRNA, log-fold change LiCl-treated versus untreated lungs: 1.20±0.30
[4]; p=0.0475
  SP-C mRNA, log-fold change LiCl-treated versus untreated lungs: −1.21±0.42
[4]; p=0.0496
  mRNA of type I collagen α1 (col1a1), log-fold change LiCl-treated versus untreated lungs: −0.86±0.33
[4]; p=0.146
  forkhead box P2 (foxp2) mRNA, log-fold change LiCl-treated versus untreated lungs: 1.38±0.59
[5]
  total collagen content in lung homogenates: 16.1 µg/mL
